Results taken from patent US20180221362A1, “EZH2 INHIBITORS AND MODULATION OF REGULATORY T-CELL FUNCTION” (Constellation Pharmaceuticals, Inc., priority 2015, published 2018).

Experiments:
[1] = test system: tumor-infiltrating immune cells; experiment: FACS analysis of tumor-infiltrating immune cells in CT26 tumors; type: in vivo, mouse; settings: tumors isolated day 22
Procedure: (§1) Tumor implantation and dosing. CT26 mouse colon carcinoma cells (ATCC CRL-2638) were expanded in vitro and 1×10^5 cells/mouse were inoculated with 50% Matrigel into the subcutaneous flank region of 6-8 week old female BABL/C mice (Taconic). Mice were randomized once tumors were palpable (>200 mm^3) and dosing was started on the same day. […] Tumors were measured and body weight recorded every 2-3 days.
Isolation and analysis of tumor-infiltrating cells. Tumors were chopped into small pieces, digested with 3 mg/mL collagenase A and 100 μg/mL DNase I at 37° C. for 30 mins, followed by the addition of FBS. The digested tumor mass was filtered using […] filters, spun down and washed with PBS Immune cells were visualized and quantifed by FACS on the BD FACSCanto™ II flow cytometry analyzer (BD Bioscience).
The observed efficacy pictured in FIG. 11 was accompanied by changes in the immune infiltrate present in the tumors. Tumors were isolated from mice upon termination of the study (day 22), digested and stained for immune markers allowing for quantification of immune cell populations by FACS. […] Consistent with the reduced efficacy observed in the αPD1 group, we found increased proliferating Treg cells in this group along with decreased proliferating cytotoxic CD8 cells, especially when compared to the combination group (FIG. 11). This effect was also clear if groups treated with the EZH2 inhibitor were analyzed together, and against groups not treated with the EZH2 inhibitor (FIG. 6).

[2] = test system: H3K27me3; experiment: H3K27me3 levels in treated FOXP3+ T-cells; type: cell-based, human; settings: FIG. 3B
[3] = test system: CT26 mouse colon carcinoma cells; experiment: In vitro growth/sensitivity of CT26 carcinoma cells; type: cell-based; settings: FIG. 9
From the text: (§2) We first evaluated whether treatment treatment of CT26 cancer cells would be sensitive to EZH2 ihibition. Protocols using CT26 cancer cells as a model for testing immunotherapy protocols and in studies on host immune response are known.
CD8 T cells are known to be major effectors of anti-tumor efficacy in mice and humans. We also explored immune cell changes beyond what our in vitro experiments had predicted, and found several unanticipated observations. First, natural killer (NK) and NKT cells, also major drivers of anti-tumor activity were increased in Inhibitor 1-treated animals, while reduced in the αPD1 group (FIG. 12). This effect was also clear if groups treated with the EZH2 inhibitor were analyzed together, and against groups not treated with the EZH2 inhibitor (FIG. 7). Second, M2 tumor associated macrophages (TAM), known to be immuno-suppressive, reduced in Inhibitor 1-treated animals, while increased in αPD1-treated animals (FIG. 13). This effect was also observed if groups treated with the EZH2 inhibitor were analyzed together, and against groups not treated with the EZH2 inhibitor (FIG. 8). Similar results were also seen with Inhibitor 4. Growth of CT26 mouse colon carcinoma cells was assessed in the presence of increasing amounts of Inhibitor 4 concentrations. […].

[4] = test system: human Treg cells; experiment: Luminex cytokine assays of day 4 iTreg culture supernatants; type: cell-based; settings: day 4 supernatants; FIG. 3C
From the text: Luminex cytokine assays. Cytokines were quantified from day 4 cell supernatants using Luminex multiplex assays (HTH17MAG-14K-12, Millipore), as per the manufacturer's protocol.
The transcription factor FOXP3 is known to be an essential regulator of Treg cells, and therefore is important to understand if EZH2 plays any role in its expression.

[5] = test system: CT26 mouse colon carcinoma cells; experiment: CT26 allograft transplantation tumor model; type: in vivo; settings: BALB/c mice, 21-day treatment; Inhibitor 1 200 mg/kg s.c. BID, PD-1 antibody 200 μg/mouse IP every 3-4 days; FIG. 10
Procedure: as §1, §2
CD8 T cells are known to be major effectors of anti-tumor efficacy in mice and humans. We also explored immune cell changes beyond what our in vitro experiments had predicted, and found several unanticipated observations. […] This effect was also clear if groups treated with the EZH2 inhibitor were analyzed together, and against groups not treated with the EZH2 inhibitor (FIG. 7). […] This effect was also observed if groups treated with the EZH2 inhibitor were analyzed together, and against groups not treated with the EZH2 inhibitor (FIG. 8). […] Growth of CT26 mouse colon carcinoma cells was assessed in the presence of increasing amounts of Inhibitor 4 concentrations. […]

[6] = test system: FOXP3; experiment: FOXP3 expression by flow cytometry during Treg differentiation; type: cell-based, human; settings: increasing concentrations, vs DMSO control; FIG. 3A

CCS(=O)(=O)N1CCC([C@@H](C)n2c(C)c(C(=O)NCc3c(OC)cc(C)[nH]c3=O)c3ccccc32)CC1 [Inhibitor 1]
NKT cells in tumors ([1]; FIG. 12): increased
natural killer (NK) cells in tumors ([1]; FIG. 12): increased
M2 tumor associated macrophages (TAM) in tumors ([1]; FIG. 13): reduced
H3K27me3 in the same (FOXP3+) cells [2]: robustly decreased
CT26 cell sensitivity in vitro [3]: substantially no CT26 cell sensitivity
secretion of IFNγ to the culture medium [4]: dose-dependent increase
secretion of IL-10 to the culture medium [4]: dose-dependent increase
secretion of IL-13 to the culture medium [4]: dose-dependent increase
tumor growth inhibition efficacy (CT26 tumor volume) [5]: significantly efficacious
FOXP3 expression (frequencies of FOXP3+ cells) [6]: no impact
